Data from US20220168329A1, “COMBINATORIAL DRUG TREATMENT OF CANCER” (University of Virginia Patent Foundation, priority 2019, published 2022).

What was measured:
[1] = system: WT and PRMT5 knockout (KO) PDAC cells (mPanc96, PANC-1); test: MTT cell viability assay, WT vs PRMT5 KO clones; format: cell-based; conditions: Homo sapiens
Description: PDX366, mPanc96, and PANC-1 cells were seeded in a flat-bottom 96-well plate (Corning) in triplicate at a density of 1-2×10^3 cells per well. The following day, cells were treated with gemcitabine (GEMZAR; Eli Lilly) and EPZ015666 (GSK3235025; SelleckChem) or EPZ015938 (GSK3326595; ChemieTek) for 4-5 days prior to MTT (3-(4,5-dimethylthiazolyl)-2,5-diphenyltetrazolium bromide) to determine effects of drugs on cell viability. Culture media were replaced with fresh RPMI, which had 10% FBS and 10% MTT (5 mg/mL) and incubated for 4 hours in a humidified (37° C., 5% CO2) incubator. 100 μL MTT solvent (10% SDS in 0.01 M HCl) was added to each well, and cells were incubated overnight. The absorbance was read at 595 nm.
To better study the role of PRMT5 in the cellular response to Gem, we generated multiple single KO clones in two additional pancreatic cancer cell lines (mPanc96 and PANC-1) (FIG. 2A). […] However, the clones with even partial PRMT5 depletion were nearly an order of magnitude more sensitive to Gem compared to wild-type (WT) clones (4-5 μM vs. ˜50 μM IC50) as measured by cell viability assay (FIG. 2B).

[2] = system: mPanc96 and PANC-1 cells; test: Crystal violet colony formation assay; format: cell-based, Human
Description: Pancreatic cancer cells were seeded in a flat-bottom 12-well plate (Corning) at a density of 1-2×10^3 cells per well. The following day, cells were treated with gemcitabine and EPZ015666 or EPZ015938 for two weeks. Culture media were replaced every week with fresh medium in the presence of drugs. Wells were washed with PBS, then stained for 30 min with crystal violet solution (0.4% crystal violet, 10% formaldehyde, 80% methanol). After staining, wells were washed once with PBS and water. The plate was dried out overnight and imaged using a scanner. Colonies were measured and analyzed with ImageJ (National Institutes of Health).

[3] = system: Pancreatic cancer cells; test: BrdU incorporation flow cytometry cell cycle analysis; format: cell-based, Human; conditions: Gem 250 nM
Description: Pancreatic cancer cells were treated with gemcitabine and EPZ015666 or EPZ015938, incorporated with BrdU (Sigma) for 1 hour and then fixed by 70% ethanol. BrdU staining was performed according to the manufacturer's instructions (BD Biosciences, Franklin Lakes, N.J., USA). Briefly, the fixed cells were washed with PBS and then resuspended in 2 N HCl for 20 min to denature the DNA. After washing with 0.1 M Na2B4O7, pH 8.5, to stop acid denaturation, the cells were resuspended and washed with 180 μL 0.5% polysorbate 20 (Sigma) with 1% normal goat serum (NGS) (Dako, Glostrup, Denmark) in PBS. Then, the cells were incubated with Alexa Fluor 647-conjugated anti-BrdU (mAb) (Invitrogen) for 1 hour at room temperature in the dark. After washing with PBS, the cells were resuspended in 2 μg/mL propidium iodide (PI) (Sigma) in PBS plus RNase, incubated at 37° C. for 30 min in the dark, and then analyzed by FACSCalibur flow cytometer (Becton-Dickinson, San Jose, Calif., USA).

[4] = system: PDAC cells; test: Western blot of DNA damage and cell cycle checkpoint markers and RPA2; format: cell-based, Human; conditions: time-course, KO cells compared to WT cells
Description: (§1) Cells were washed with cold PBS and lysed in RIPA buffer (Cell Signaling Technology). After centrifugation at 14,000 rpm for 15 minutes at 4° C., the supernatants were collected and the protein concentrations were measured using BCA protein assay reagent (BIO-RAD). Subsequently, equal amounts of proteins were separated in NuPAGE 4-12% Bis-Tris gradient gel (Invitrogen #NP0335) and transferred onto nitrocellulose membranes (Invitrogen #B301002). After blocking with 5% milk, the membranes were then probed at 4° C. overnight with various primary antibodies: anti-γ-H2AX (Cell Signaling), anti-phospho-Chk1 (Ser345) (Cell Signaling), anti-phospho-Chk2 (Thr68) (Cell Signaling), anti-PRMT5 (Abcam), anti-RPA1 (Abcam), anti-phospho-RPA2 (S4/S8) (Bethyl Laboratories), anti-RPA2 (Ab-2) (Calbiochem), cleaved caspase-3 (Cell Signaling), and anti-β-actin (Sigma); washed with TBST (20 mM Tris, 150 mM NaCl, 0.1% polysorbate 20; pH 7.6); and incubated with horseradish peroxidase (HRP)-conjugated secondary antibodies (Promega) at room temperature for 1 hour. Finally, after washing with TBST, the antibody-bound membranes were treated with enhanced chemiluminescent Western blot detection reagents (GE Healthcare) and visualized with an x-ray film (GE Healthcare).

[5] = system: mPanc96 cells; test: γ-H2AX immunofluorescence staining; format: cell-based, Human
Description: Cells grown on glass coverslips (VWR) were rinsed with PBS, and then fixed in 4% formaldehyde for 15 min. The cells were subsequently treated with 0.2% Triton X-100 in PBS for 10 min. After blocking with 2% BSA in PBS containing 5% FBS at RT for 30 minutes, cells were incubated with an appropriate primary antibody γ-H2AX (Cell Signaling) for 2 hours. Then the cells were washed with PBS and incubated for 1 hour with secondary antibody [Alexa Fluor-488 goat anti-mouse immunoglobulin G (IgG) (H+L) conjugate or anti-rabbit IgG (H+L) conjugate (Invitrogen)]. After washing with PBS, the coverslips were dried, and then reversely covered onto slides (Fisher Scientific) by adding mounting medium with 4′,6-diamidino-2-phenylindole dihydrochloride (DAPI) (Vector Laboratories). A LSM-710 confocal microscope (Zeiss) was used to obtain fluorescence images.

[6] = system: mPanc96 cells; test: Comet assay (DNA strand breaks); format: cell-based, Human; conditions: PRMT5 KO or PRMT5-inhibited cells treated with Gem vs WT and control-treated cells
Description: The comet assay measures DNA damage in individual cells. It was performed according to the instructions of the OxiSelect Comet Assay Kit (Cell Biolabs). Briefly, microscope slides were first covered with a normal melting point agarose to create a base layer. Then, 1-2×10^5 cells were embedded into 75 μL of low-melting-point agarose at 37° C. and the gel was cast over the first agarose layer. Then slides were immersed into a lysis buffer and kept for 1 hour at 4° C. After cell lysis, the slides were electrophoresed in alkaline electrophoresis buffer (300 mM NaOH, 1 mM EDTA, pH 13). The slides were then stained with Vista Green DNA dye. Comet tails were measured using Image J.

[7] = system: HeLa DR13-9 cell line; test: I-SceI reporter assay, homology-directed repair (HDR); format: cell-based, Human; conditions: Gem 250 nM and/or EPZ015666 500 nM, 24 hours
Description: (§2) NHEJ and HR assays to examine the repair efficiency of I-SceI inducible-double strand breaks (DSBs) were performed using NHEJ/DsRed293B and HeLa DR13-9 cell lines, respectively, as previously described with slight modifications. Briefly, 3×10^5 cells were plated on 6-well dishes and 2 μg I-SceI expression vector […] was transfected using Lipofectamine2000 (Invitrogen). 24 hours post-transfection, the indicated amount of gemcitabine and/or EPZ015666 was incubated with cells for 24 hours. The DsRed- and GFP-expressing cells were counted in flow cytometric analysis (BD FACS Calibur and CellQuest Pro) by the FL2 and FL1 channels for NHEJ and HR repair efficiency, respectively. […] To this end, we used I-SceI endonuclease-based genetic reporters where relative efficiency of DSB repair by either pathway could be robustly quantified. […] However, exogenous expression of I-SceI leads to a DSB repair and creation of either dsRED+ or GFP+ cells, which can be quantified to assess relative NHEJ or HDR repair efficiencies by quantifying the percentage of dsRED+ or GFP+ cells upon I-SceI expression. […] We then assessed whether PRMT5 inhibitor alone or in combination with Gem results in differential NHEJ activity. […]

[8] = system: NHEJ/DsRed293B cell line; test: I-SceI reporter assay, NHEJ; format: cell-based, Human; conditions: Gem 250 nM and/or EPZ015666 500 nM, 24 hours
Description: as §2

[9] = system: WT and PRMT5 KO mPanc96 tumors; test: Xenograft of WT and PRMT5 KO mPanc96 cells treated with Gem; format: in vivo, nude mice; conditions: Gem 50 mg/kg or 100 mg/kg i.p.
Description: To develop xenograft tumors, Control sgRNA infected WT cells and PRMT5-KO cells were subcutaneously injected into the dorsal flanks of 8 week-old nude mice, which were obtained from the Jackson Laboratory (Bar Harbor, Me., USA). When the tumors were visible (approximately 30 mm^3 in volume), the mice received respective gemcitabine treatments via intraperitoneal (i.p.) injection. After weekly monitoring, time to appearance of the tumor was recorded, and the tumor volume was measured by caliper. The tumor volume was calculated as follows: volume=longest tumor diameter×(shortest tumor diameter) 2/2. After 35 days of treatment, the mice were euthanized by CO2 inhalation, and the tumor tissues were collected for further analyses. […] Initially, we tested whether tumors formed by WT and PRMT5 KO cells were differentially sensitive to Gem treatment. To be able to better compare the tumors from these two genetic backgrounds, we injected 5×10^5 WT mPanc96 cells in the left flank and the same number of the PRMT5 KO cells in the right flank of the same mouse. This strategy enabled us to compare the two tumors grown in the same mouse. After one week of tumor formation, the mice were randomly divided into three groups where one received control, and the other two received two separate Gem doses (50 mg/kg or 100 mg/kg).

[10] = system: xenograft tumors; test: γ-H2AX and SDMA levels in extracted tumor tissues (IHC, Western blot); format: in vivo, mice
Description: as §1, with “Healthcare). We also extracted tumors to analyze their morphology and molecular structure through H&E and IHC for selected markers. […] To assess whether the combination treatment abolished PRMT5 function in vivo, we evaluated the overall levels of the γ-H2AX and the symmetric […] of arginine (SDMA) in WT tumors, PRMT5 KO tumors as well as single-agent and combination-treated WT tumors.” for “Healthcare).”

[11] = system: PRMT5; test: Western blot of global SDMA in cells; format: cell-based, Human; conditions: increasing concentrations (nM)
Description: as §1

[12] = system: WT and PRMT5 KO cells; test: Western blot of Caspase-3 cleavage (apoptosis) in WT and PRMT5 KO cells; format: cell-based, Human; conditions: WT vs PRMT5 KO cells, increasing doses (nM)
Description: as §1

Nc1ccn([C@@H]2O[C@H](CO)[C@@H](O)C2(F)F)c(=O)n1 [Gem, 2′,2′-difluoro 2′-deoxycytidine]
IC50 ([1]; clones with even partial PRMT5 depletion (PRMT5 KO)): 4 to 5 µM | IC50 ([1]; wild-type (WT) clones): ~50 µM | sensitivity to Gem in longer-term colony formation ([2]; PRMT5 KO clones compared to WT cells): significantly more sensitive | cell cycle position ([3]; PRMT5 KO cells compared to WT cells): significantly higher number of G2/M cells | cell cycle position ([3]; WT cells, EPZ015666 500 nM): partial delay in cell cycle with a substantial accumulation of cells in S-phase and partial increases in G2/M cells | phospho-Chk1, γ-H2AX and phospho-RPA2 activation [4]: sustained and stronger | time to strong γ-H2AX foci post Gem treatment ([5]; PRMT5 KO cells, Gem 250 nM): 4 h | time to similar levels of γ-H2AX foci ([5]; WT cells, same concentration of Gem): 48 to 72 h | γ-H2AX foci formation levels ([5]; over 72 hours, PRMT5 KO vs WT cells, Gem treatment): significantly higher levels of γ-H2AX | comet tail length [6]: significantly longer comet tail | HDR activity [7]: significantly inhibits the HDR activity | NHEJ activity [8]: significant increase in NHEJ activity | tumor volume ([9]; PRMT5 KO tumors): most significant reduction of tumor volumes | tumor volume ([9]; WT tumors): notable reduction of WT tumors | γ-H2AX staining (IHC) in tumors ([10]; PRMT5 KO tumors vs WT tumors treated with Gem): significantly more γ-H2AX staining | γ-H2AX in tumors ([10]; Western blot, PRMT5 KO tumors): significantly activated

O=C(NC[C@H](O)CN1CCc2ccccc2C1)c1cc(NC2COC2)ncn1 [EPZ015666]
global SDMA [11]: significantly inhibits global SDMA | apoptosis (caspase-3 cleavage) [12]: significant apoptosis (caspase-3 cleavage) selectively in WT cells but not in PRMT KO cells | HDR activity [7]: significantly inhibits the HDR activity | NHEJ activity [8]: significant increase in NHEJ activity | overall SDMA levels in tumors ([10]; Western blot of tumor tissues): lower overall levels of SDMA

CC(=O)N1CCC(Nc2cc(C(=O)NC[C@H](O)CN3CCc4ccccc4C3)ncn2)CC1 [EPZ015938]
growth inhibition activity on colony formation ([2]; single agent, compared with the other PRMT5 inhibitor): substantially more growth inhibition activity
